Assay results: article PMC6155388, “Chemical Constituents of Smilax china L. Stems and Their Inhibitory Activities against Glycation, Aldose Reductase, α-Glucosidase, and Lipase” (Molecules : A Journal of Synthetic Chemistry and Natural …, 2017)

Key:
[1] = target: T1, porcine pancreatic lipase (Sus scrofa, UniProt P00591); test: Lipase inhibition assay (p-NPB); type: biochemical; conditions: isolated compounds; tested 10–2000 µM; mean ± SD (n = 3)
T1 construct: purchased Sigma-Aldrich Co. Type II
T1 sequence (P00591 1-450): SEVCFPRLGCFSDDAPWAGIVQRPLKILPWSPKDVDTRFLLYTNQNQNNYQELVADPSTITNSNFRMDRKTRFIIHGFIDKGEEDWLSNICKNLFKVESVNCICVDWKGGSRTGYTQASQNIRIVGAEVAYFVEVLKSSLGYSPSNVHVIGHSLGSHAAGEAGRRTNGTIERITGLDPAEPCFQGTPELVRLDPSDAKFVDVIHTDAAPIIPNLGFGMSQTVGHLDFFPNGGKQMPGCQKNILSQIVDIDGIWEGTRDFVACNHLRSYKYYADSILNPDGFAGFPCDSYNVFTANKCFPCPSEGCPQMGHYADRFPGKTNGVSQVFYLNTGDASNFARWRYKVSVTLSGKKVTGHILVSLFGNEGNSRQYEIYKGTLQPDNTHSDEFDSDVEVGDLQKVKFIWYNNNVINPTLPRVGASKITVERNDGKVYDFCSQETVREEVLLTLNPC
Protocol: Lipase inhibition activity was evaluated according to a slightly modified method of de Camargo et al. [66]. The substrate used was p-nitrophenyl butyrate (p-NPB), which is converted to p-nitro-phenol in the presence of lipase, giving a yellow color that can be used to quantify the extent of the reaction. Type II porcine pancreatic lipase was used at a concentration of 5 mg/mL. The substrate (p-NPB) was prepared in DMSO to achieve a concentration of 5 mM. Tested samples, dissolved in 10% DMSO at five different final concentrations (0.05–5.0 mg/mL for extracts and fractions or 10–2000 µM for isolated constituents), were mixed with Tris–HCl buffer (pH 7.4), and enzyme solution, with a total reaction mixture volume of 840 μL. After incubation at 37 °C for 15 min, p-NPB was added, and the solution was further incubated at 37 °C for 25 min. Then, the mixture was cooled for 2 min, and 200 μL was transferred to a 96-well plate. Absorbance was measured using the SUNRISE microplate reader. Blanks, in which enzymes were replaced with Tris–HCl buffer, were prepared for background corrections. […] The inhibition rate of lipase activity was also calculated using Equation (1).

[2] = target: α-glucosidase from Saccharomyces cerevisiae; test: α-Glucosidase inhibition assay (p-NPG); type: biochemical; conditions: isolated compounds; tested 1–1000 µM; mean ± SD (n = 3)
Protocol: This enzyme inhibition assay was carried out by using a 96-well microplate reader and a spectrophotometer. The reaction volume (60 μL) contained 100 mM phosphate buffer (pH 6.8), 2.5 mM p-nitrophenyl α-D-glucopyranoside (p-NPG), and sample dissolved in 10% DMSO at five different final concentrations (5–100 µg/mL for extracts and fractions or 1–1000 µM for isolated constituents). A chromogenic substance was used for quantification purposes. The mixture solution was added to each well, then, 20 μL of 10 mM phosphate buffer (pH 6.8) containing 0.2 U/mL α-glucosidase was added. The plate was incubated at 37 °C for 15 min, then, 80 μL of 0.2 mol/L sodium carbonate solution was added to stop the reaction. Absorbance was measured at 405 nm immediately after reaction cessation by using a SUNRISE microplate reader (Tecan Austria GmbH, Grodig, Austria). The negative control contained the same reaction mixture with phosphate buffer substituted for the sample solution. […] The inhibition rate of α-glucosidase activity was calculated using the same equation (1) used for inhibition of AGEs formation, but absorbance was measured instead of fluorescence.

[3] = tested on: AGEs formation; test: AGEs formation inhibition assay (BSA with fructose and glucose, fluorescence); type: biochemical; conditions: mean ± SD (n = 3); for IC50: isolated compounds, tested 10–500 µM
Protocol: In accordance with a reported protocol with slight modifications, a reaction mixture of bovine serum albumin (10 mg/mL, Sigma Aldrich) in 50 mM phosphate buffer (pH 7.4) with 0.02% sodium azide was added to 0.4M fructose and glucose. The reaction mixture (270 μL) was added to 30 μL of sequentially diluted compounds or the positive control, AMG. Each sample of extract, hexane, water fractions, EAF, NBF, and compounds 1–10 were dissolved in DMSO for the AGEs assay at five different final concentrations (10–500 µg/mL for extracts and fractions or 10–500 µM for isolated constituents). After 48 h of incubation at 60 °C, 200 μL of the reaction products was taken to 96-well plates and its fluorescence was measured using a spectrofluorometric detector (FlexStation 3, HTRF® Chemistry) at an excitation wavelength of 350 nm and an emission wavelength of 450 nm. DMSO was used as negative control instead of the sample. The IC50 values and 95% confidence intervals were obtained via regression analysis. The percentage of inhibition (%) was calculated by the following equation, where Ac stands for the fluorescence of the control and As stands for the fluorescence of the sample: (1) Inhibition(%)=Ac−As/Ac×100

[4] = target: T2, rat lens aldose reductase (Rattus norvegicus, UniProt P07943); test: AR assay (rat lens homogenate, decrease in β-NADPH absorption); type: biochemical, Sprague-Dawley rats; conditions: mean ± SD (n = 3); for IC50: isolated compounds, tested 0.1–100 µM
T2 construct: The rat lenses were homogenized and centrifuged at 10,000 rpm (4 °C, 20 min) and the supernatant was used as an enzyme source; from tissue; host or cells: rat lens (Sprague-Dawley)
Protocol: Lenses (one lens per 0.5 mL sodium buffer) were removed from Sprague-Dawley rats (weight 250–280 g) and stored in a deep freezer at −80 °C until use. The rat lenses were homogenized and centrifuged at 10,000 rpm (4 °C, 20 min) and the supernatant was used as an enzyme source [65]. AR activity was spectrophotometrically calculated by measuring the decrease in β-NADPH absorption rate at 340 nm for a 4 min period at 25 °C in a 96-well plate using the same detector device used in the AGEs assay. The assay mixture (300 µL) contained 0.1 M potassium phosphate buffer (pH 7.0), 0.1 M sodium phosphate buffer (pH 6.2), 1.6 mM β-NADPH, and test samples with 0.025 M of DL-glyceraldehyde as substrate. […] IC50 values were determined using the least-squares regression line of log concentration plotted against residual activity. TMG, a typical AR inhibitor, was used as the positive control. A negative control was fulfilled by using DMSO instead of the sample.

[5] = ND: no detection within test concentration
[6] = 70% MeOH stem extracts of Smilacaceae plants

IC50 [2] [µM]	IC50 [4, 5] [µM]	Aldose Reductase IC50 [4, 6] [µg/mL]	Aldose Reductase IC50 ([4]; SCS extract and solvent fractions, tested 10–100 µg/mL, ND: no detection within test concentration) [µg/mL]	Compound	IC50 [1] [µM]	IC50 [3] [µM]	AGEs IC50 [3, 6] [µg/mL]	AGEs IC50 ([3]; SCS extract and solvent fractions, tested 10–500 µg/mL, ND: no detection within test concentration) [µg/mL]
609 ± 32	9.38 ± 1.46			CC1OC(Oc2cc(O)c3c(=O)c(OC4OC(CO)C(O)C(O)C4O)c(-c4ccc(O)cc4)oc3c2)C(O)C(O)C1O [Kaempferol 3-O-β-D-glucopyranosyl-7-O-α-L-rhamnopyranoside]	> 1000	193 ± 9		
5.97 ± 0.2	60.5 ± 16.8			Oc1ccc(/C=C/c2cc(O)cc(O)c2)cc1 [trans-Resveratrol (8), 3,5,4′-Trihydroxy-trans-stilbene]	61.2 ± 11.7	148 ± 14		
45.1 ± 2.6	17 ± 3.6			CC1OC(Oc2c(O)cc(O)c3c(=O)cc(-c4ccc(O)cc4)oc23)C(O)C(O)C1O (stereo not drawn) [Isoscutellarein-8-O-rhamnoside (10), Isoscutellarein 8-O-rhamnoside]	101 ± 18	440 ± 17		
154 ± 4	34.5 ± 0.1			COc1cc(/C=C/C(=O)OC[C@H]2O[C@@](CO)(O[C@H]3O[C@H](CO)[C@@H](O)[C@H](O)[C@H]3O)[C@@H](OC(=O)/C=C/c3ccc(O)c(OC)c3)[C@@H]2O)ccc1O [Helonioside A (9)]	> 1000	227 ± 16		
	6.97 ± 0.56	1.30 ± 0.10	1.30 ± 0.10	O=C(O)CC1(CC(=O)O)CCCC1 [TMG, 3,3′-tetramethyleneglutaric acid, reference compound]				

The remaining lines, values behind:

Compound	IC50 [2] [µM]	IC50 [4, 5] [µM]	Aldose Reductase IC50 [4, 6] [µg/mL]	Aldose Reductase IC50 ([4]; SCS extract and solvent fractions, tested 10–100 µg/mL, ND: no detection within test concentration) [µg/mL]	IC50 [1] [µM]	IC50 [3] [µM]	AGEs IC50 [3, 6] [µg/mL]	AGEs IC50 ([3]; SCS extract and solvent fractions, tested 10–500 µg/mL, ND: no detection within test concentration) [µg/mL]
O=C(/C=C/c1ccc(O)c(O)c1)OC1C(O)CC(O)(C(=O)O)CC1O (stereo not drawn) [4-O-Caffeoylquinic acid (4), 4-O-Caffeoylquinic acid]	736 ± 15				> 1000	74.1 ± 3.1		
O=C(O)c1ccc(O)c(O)c1 [Protocatechuic acid (1), Protocatechuic acid]	176 ± 7				22.9 ± 0.8	418 ± 10		
C[C@@H]1O[C@@H](Oc2c(-c3ccc(O)cc3)oc3cc(O)cc(O)c3c2=O)[C@H](O)[C@H](O)[C@H]1O [Afzelin (7), Kaempferol 3-O-α-L-rhamnoside]						75.4 ± 3.8		
C[C@@H]1O[C@@H](Oc2c(-c3ccc(O)c(O)c3)oc3cc(O)cc(O)c3c2=O)[C@H](O)[C@H](O)[C@H]1O [Quercitrin (6), Quercetin 3-O-α-L-rhamnoside]	135 ± 13	0.56 ± 0.14			96.7 ± 7	58 ± 2.5		
O=C(/C=C/c1ccc(O)c(O)c1)OC1CC(O)(C(=O)O)CC(O)C1O (stereo not drawn) [5-O-Caffeoylquinic acid (2), 5-O-Caffeoylquinic acid]		87.5 ± 1.6			474 ± 35	215 ± 18		
N=C(N)NN [AMG, aminoguanidine, reference compound]						515 ± 33	54.8 ± 2.1	54.8 ± 2.1
O=C(/C=C/c1ccc(O)c(O)c1)OC1CC(O)(C(=O)O)CC(O)C1O (stereo not drawn) [3-O-Caffeoylquinic acid (3), 3-O-Caffeoylquinic acid]		0.6 ± 0.03			> 1000	80.5 ± 5.5		
